Measurements reported in US5830881A, “L-2'3',dideoxy nucleoside analogs as anti-hepatitus B (HBV) agents” (priority 1996, dated 1998).
Where two headings read alike, the source gives them in different places.

Assays:
[1] = system: human immunodeficiency virus (HIV); conditions: in words, literature, cited from earlier work
HBV [2] = assay: Anti-HBV effects: viral DNA from secreted particles of the 2.2.15 human hepatoma cell line carrying HBV (Southern analysis); assay type: cell-based, Hepatitis B virus
Procedure: The biological activity of the present compounds was assessed as described by Doong, S-L, et al., Proc. Natl. Acad. Sci. U.S.A 88, 8495-8499 (1991). The human hepatoma cell line carrying the HBV (designated 2.2.15) kindly provided by Dr. G. Acs was used in the study. Price, et al., Proc. Natl. Acad. Sci. U.S.A. 86, 8541 (1989). Briefly, Six day-old cultures were treating with varying concentrations of the drug in the culture medium (Minimum essential medium with Earl's salts and 10% fetal bovine serum). The drug was left in the culture medium for a period of 3 days after which period the medium was aspirated and fresh medium containing the same concentration(s) of the dry was added. At the end of the subsequent 3 day period the culture medium was harvested. The culture medium was processed for obtaining the virions by the polyethylene glycol precipitation method (Doong, et al., supra). Viral DNA thus recovered from the secreted particles was subjected to Southern analysis. Inhibition of the viral replication was determined by the comparison of the viral DNA from drug-treated versus control cultures not treated with the drug.

HIV-1 [3] = assay: Anti-HIV effects in T-lymphoblastoid cell line MT-2 infected with HIV-1; assay type: cell-based; conditions: Human immunodeficiency virus 1, MT2, MT-2 cells, read-out: Anti-HIV ID50
Procedure: Anti-HIV effects were determined using the T-lymphoblastoid cell line, MT-2 infected with the HIV-1 virus. The inhibition was determined by the method of Larder, B. A., et al., Antimicrob. Agents Chemother., 34, 436 (1990).

in vitro = conditions: human, cem cells
CEM cells [4] = assay: Cellular toxicity in T-lymphoblastoic cell line (CEM), cell number 3 days post treatment; assay type: cell-based; conditions: in words
Procedure: (§1) To determine the cellular toxicity of the present compounds, the T-lymphoblastoic cell line (CEM) was used. Cells were subjected to varying concentrations of the drug(s) and cell numbers were determined 3 days post treatment by the method described by Chen, C-H and Cheng, Y-C J. Biol. Chem., 264, 11934 (1989).

[5] = as above; assay type: cell-based; conditions: human; CEM cells, 3 days; read-out: Cytotoxicity ID50
Procedure: as §1

[6] = system: Hepatitis B viral infections; conditions: in words; prior therapy; cited from earlier work
Hepatitis B virus = conditions: in words; literature; cited from earlier work
CEM cells [7] = conditions: cited from earlier work; for CC50: data from published literature, 4320 min, read-out: Cytotoxicity ID50
HIV-1 [8] = conditions: data from published literature; read-out: Anti-HIV ID50; cited from earlier work
mitochondrial DNA = conditions: cited from earlier work; for IC50: data from published literature, read-out: Anti-mitochondrial DNA ID50
HBV [9] = conditions: data from published literature; read-out: Anti-HBV ID50; cited from earlier work

## OC[C@@H]1CC[C@H](n2cnc3c(O)ncnc32)O1 [DDI, 2',3'-dideoxyinosine]
[1]
  activity against HIV: significant activity

## Cc1cn([C@H]2C[C@H](F)[C@@H](CO)O2)c(=O)[nH]c1=O [3'-fluoro-3'-deoxythymidine]
[1]
  activity against HIV: significant activity

## Nc1ccn([C@@H]2CC[C@H](CO)O2)c(=O)n1 [L-ddC, 1-(2,3-dideoxy-beta-L-ribofuranosyl)cytosine]
HBV [2]; Hepatitis B virus, 2.2.15 cells, read-out: Anti-HBV ID50
  IC50: 10 nM
HBV [2]; in words
  inhibition of HBV DNA replication: efficiently inhibited
HBV [2]; in words, relative activity
  activity against HBV: several fold higher activity against HBV
HIV-1 [3]
  IC50: 8000 nM
In vitro
  IC50: > 100000 nM
CEM cells [4]
  cellular effects: minimal cellular effects
CEM cells [4]; compared with ddC
  cellular cytotoxicity as compared to ddC: considerably less
[5]
  CC50 at 72 h: 54000 ± 20000 nM

## Cc1cn([C@H]2C[C@H](N=[N+]=[N-])[C@@H](CO)O2)c(=O)[nH]c1=O [AZT]
[6]
  success in treatment of hepatitis: little, if any, success

## Nc1ncnc2c1ncn2[C@@H]1O[C@H](COP(=O)(O)O)[C@@H](O)[C@@H]1O [ara-AMP]
[6]
  success in treatment of hepatitis: limited success

## Nc1nc2c(ncn2COCCO)c(=O)[nH]1 [acyclovir]
[6]
  success in treatment of hepatitis: little, if any, success

## 2',3'-dideoxy-2',3'-didehydroguanosine [Carbovir]
[1]
  activity against HIV: significant activity

## Nc1nc(=O)n([C@@H]2CS[C@H](CO)O2)cc1F (relative stereo) [(±)5-FSddC]
Hepatitis B virus
  activity against Hepatitis B virus in culture: potent activity

## O=C(O)P(=O)(O)O [foscarnet]
[6]
  success in treatment of hepatitis: little, if any, success

## Nc1ncnc2c1ncn2[C@H]1C[C@H](F)[C@@H](CO)O1 [3'-fluoro-2',3'-dideoxyadenosine]
[1]
  activity against HIV: significant activity

## [N-]=[N+]=N[C@H]1C[C@H](n2ccc(=O)[nH]c2=O)O[C@@H]1CO [3'-azido-2',3'-dideoxyuridine]
[1]
  activity against HIV: significant activity

## interferon alpha
[6]
  success in treatment of hepatitis: limited success

## Nc1ccn([C@H]2CS[C@@H](CO)O2)c(=O)n1 (stereo in doubt) [(-)S-ddC, (-)-2',3'-Dideoxy-3'-thiacytidine]
CEM cells [7]
  CC50: 50000 nM
HIV-1 [8]
  IC50: 2000 nM
Mitochondrial DNA
  IC50: > 50000 nM
HBV [9]
  IC50: 10 nM
Hepatitis B virus
  activity against Hepatitis B virus in culture: potent activity

## Nc1ccn([C@@H]2CS[C@H](CO)O2)c(=O)n1 (relative stereo) [(±) SddC, (+) and (-)-2',3'-Dideoxy-3'-thiacytidine]
Hepatitis B virus
  activity against Hepatitis B virus in culture: potent inhibitors of Hepatitis B virus

## Nc1ncnc2c1ncn2[C@@H]1O[C@H](CO)[C@@H](O)[C@@H]1O [adenine arabinoside]
[6]
  success in treatment of hepatitis: limited success

## Nc1ccn([C@H]2CC[C@@H](CO)O2)c(=O)n1 [ddC, 2',3'-dideoxycytidine]
CEM cells [7]
  CC50: 10000 nM
CEM cells [7]; in words, compared with L-ddC
  cytotoxicity compared with L-ddC: much more cytotoxic than L-ddC
HIV-1 [8]
  IC50: 1000 nM
Mitochondrial DNA
  IC50: 22 nM
Mitochondrial DNA; in words
  effects on host mitochondrial DNA: significant effects on host mitochonrial DNA
[1]
  activity against HIV: among the most potent inhibitors of HIV
[1]; listed as DDC
  activity against HIV: significant activity
HBV [9]
  IC50: 2800 nM

## Cc1cn([C@H]2C=C[C@@H](CO)O2)c(=O)[nH]c1=O [Compound D4T, 3'-deoxy-2',3'-didehydrothymidine]
[1]
  activity against HIV: significant activity

## Nc1ccn([C@H]2C=C[C@@H](CO)O2)c(=O)n1 [2',3'-dideoxy-2',3'-didehydrocytidine]
[1]
  activity against HIV: significant activity
